# Patent EP0280239A1, “1,4-Dihydropyridine derivatives, production and use thereof” (SANWA KAGAKU KENKYUSHO CO., LTD., priority 1987, dated 1988)
# Tests used:
# Format in all cases: in vivo
# [1] = tested on: spontaneously hypertensive rats; assay: Blood pressure depressing action in spontaneously hypertensive rats; conditions: male spontaneously hypertensive rats, oral, 3.0 mg/kg, N=6; for systric pressure of median sacral artery, change at 1 hr (%): 1 hr after administration; for systric pressure of median sacral artery, change at 2 hr (%): 2 hr after administration; for systric pressure of median sacral artery, change at 4 hr (%): 4 hr after administration; for systric pressure of median sacral artery, change at 6 hr (%): 6 hr after administration; for systric pressure of median sacral artery, change at 24 hr (%): 24 hr after administration
# Source text: Pharmacological Test Example 2 (Blood pressure depressing action)
# mongrel dogs [2] = assay: Blood flow increasing action (vertebral and femoral arterial blood flow, blood pressure) in anesthetized dogs; conditions: 1µg/kg, i.v., 5 head
# Protocol: Pharmacological Test Example 1 (Blood flow increasing action)
# An experiment was carried out by anesthetizing adult made and female mongrel dogs (weight; 10 to 20kg) with Nembutal (30mg/kg, i.p.) and artificially respiring (20ml/kg/stroke, 20 strokes/min.) the animals.
# Right vertebral and femoral arteries were exposed and each probe of electro-magnetic flow meter was fitted therein to measure vertebral and femoral arterial blood flows. A cannula was inserted into descending aorta from left femoral artery, in order to measure blood pressure by a pressure transducer connected to an amplifier. Each of test compounds dissolved in 50% ethanol solution (1µg/kg, i.v.) was administered from the cannula into cephlic vein.
# Further, an amount of the compound required to increase the vertebral arterial blood flow by 50% was checked to obtain results shown in following Table 2, wherein the amount is given as ED₅₀ (µg/kg).
# mongrel dogs [3] = assay: as above; conditions: Canis lupus familiaris, iv, read-out: ED50, i.v. (amount required to increase the vertebral arterial blood flow by 50%)
Structure (SMILES),"systric pressure of median sacral artery, change at 1 hr (%) [1] [%]","systric pressure of median sacral artery, change at 2 hr (%) [1] [%]","systric pressure of median sacral artery, change at 4 hr (%) [1] [%]","systric pressure of median sacral artery, change at 6 hr (%) [1] [%]","systric pressure of median sacral artery, change at 24 hr (%) [1] [%]",Change (%) DBP (Diastolic blood pressure) (mongrel dogs [2]) [%],Change (%) FABF (Femoral arteial blood flow) (mongrel dogs [2]) [%],Change (%) VABF (Vertebral arterial blood flow) (mongrel dogs [2]) [%],ED50 (mongrel dogs [3]) [µg/kg]
"CC1=C(C(=O)OCCN(C)Cc2ccc(Cl)cc2Cl)C(c2cccc([N+](=O)[O-])c2)C(C(=O)OCC2CC2)=C(C)N1 (centres unmarked) [Example 1, 3-Cyclopropylmethyl 5-[2-[N-(2,4-dichlorobenzyl)-N-methylamino]-ethyl]1.4-dihydro-2,6-dimethyl-4-(3-nitrophenyl)-pyridine-3,5-dicarboxylate]",-33.3±6.57,-35.2±4.12,-34.0±2.42,-32.8±2.72,-13.0±5.94,-7 ± 1,23 ± 7,90 ± 17,1.1
"COC(=O)C1=C(C)NC(C)=C(C(=O)OCCN(C)Cc2ccccc2)C1c1cccc([N+](=O)[O-])c1 (centres unmarked) [Nicardipine, 1,4-dihydro-2,6-dimethyl-4-(3-nitrophenyl)pyridine-3,5-dicarboxylic acid 3-2-(N-benzyl-N-methylamino)ethyl 5-methyl ester, reference compound]",-10.0±2.28,-5.7±1.61,-3.0±2.01,-1.0±1.50,-4.2±1.88,-10 ± 1,14 ± 5,32 ± 7,4.2
"CC1=C(C(=O)OCCN2Cc3ccc(Cl)cc3C2)C(c2cccc([N+](=O)[O-])c2)C(C(=O)OCC2CC2)=C(C)N1 (centres unmarked) [Example 2, 3-[2-(5-Chloroisoindolin-2-yl)ethyl] 5-cyclopropymethyl 1.4-dihydro-2,6-dimethyl-4-(3-nitrophenyl)-pyridine-3,5-dicarboxylate]",-3.0±1.47,-9.0±2.82,-13.2±6.15,-21.4±3.67,-14.3±4.09,-7 ± 2,23 ± 8,40 ± 6,1.6
"COC(=O)C1=C(C)NC(C)=C(C(=O)OC)C1c1ccccc1[N+](=O)[O-] [Nifedipine, dimethyl ester of 1,4-dihydro-2,6-dimethyl-4-(2-nitrophenyl)pyridine-3,5-dicarboxylic acid, reference compound]",-19.3±4.41,-10.6±3.14,-4.3±2.70,-0.1±1.56,-1.1±1.06,–,–,–,–
